Experiments:
in vivo = settings: male, mouse, po, 10 mg/kg; for AUC(0-t): AUC0-24 h
Description: The Jevtana (10 mg/mL) solution contains 0.26 mg/mL polysorbate 80 and 15% (w/v) ethanol, and is adjusted to pH 2-6 with citric acid. […] The stock solution was further diluted 5-fold with water to reach a 2.5 mg/mL dosing solution for oral administration. The vehicle solution only consists of polysorbate 80, ethanol and water (1:1:8, v/v/v). […] All dosing solutions were prepared freshly on the day of the experiment.
At the termination time point of 24 hours, mice were anesthetized using an isoflurane evaporator with 3% isoflurane with 0.8 L/min air and 0.3 L/min oxygen. A final blood sample was taken using cardiac puncture, using Eppendorf tubes previously prepared with heparin as an anticoagulant. Subsequently, the anesthetized mice were sacrificed by cervical dislocation and the tissues of interest were collected. Brain, liver, spleen, kidney, small intestine, and testis were collected. The small intestinal content (SIC) was separately collected by removing this from the small intestinal tissue, which was subsequently rinsed with saline to remove possibly fecal residue. The blood samples were centrifuged at 9,000×g for 6 minutes at 4° C., and the plasma fraction was isolated and stored at −30° C. until analysis. Brain, liver, spleen, kidney, small intestinal tissue, SIC, and testis were homogenized in a FastPrep-24™ 5G homogenizer (M. P. Biomedicals, Santa Ana, CA, USA) for 1 min with 1, 3, 1, 2, 3, 2, and 1 mL of 2% (w/v) BSA in Milli-Q water, respectively. Until analysis of the samples, they were all stored at −30° C.
Pharmacokinetic parameters were estimated by non-compartmental analysis using the software package of PK solutions 2.0.2 (SUMMIT, Research Service). The area under the curve (AUC) of the plasma-concentration time curve for all the compounds was calculated using the linear trapezoidal rule without extrapolating to infinity. The peak plasma concentration (Cmax) and the time to reach peak plasma concentration (Tmax) were obtained directly from the individual raw data. For the statistical analysis and the graphs GraphPad Prism 9 (GraphPad Software Inc., La Jolla, CA, USA) was used. The statistics for the comparison of multiple groups were calculated with the one-way analysis of variance (ANOVA), whereas Sidak's post hoc correction was performed. Log-transformation before statistical analysis was applied, when variances within the groups were not homogeneously distributed. Differences were considered statistically significant when P<0.05. All data are presented as geometric mean±SD.

[1] = Plasma pharmacokinetics and tissue distribution 2 h after oral cabazitaxel 10 mg/kg with vehicle or 25 mg/kg ritonavir in wild-type, Oatp1a/1b−/−, Oatp1a/1b/2b1−/−, OATP1B1- and OATP1B3-transgenic mice; assay type: in vivo; settings: for reduction of SIC recovered percentage of dose corrected for the plasma AUC: vehicle + oral cabazitaxel 10 mg/kg, 2 h; for Cmax / Tmax / AUC(0-t): male, FVB, mouse, plasma, po, 10 mg/kg, vehicle pretreatment, oral 10 mg/kg cabazitaxel; for AUC(0-t): 0-2 h, read-out: AUC0-2 h
Description: All animals were fasted 2 to 3 hours prior to the start of the experiment to minimize variation in absorption after oral administration. […] Subsequently, cardiac puncture was performed with a heparinized needle and syringe collecting a final blood sample. […] All samples were stored at −30° C. until analysis.
Differences were considered statistically significant when P<0.05. All data are presented as geometric mean±SD.

[2] = Oatp1a/b−/− compared to wild-type mice after intravenous administration; Iusuf et al.; cited from earlier work
[3] = chemically castrated men compared to non-castrated patients; cited from earlier work
[4] = Cyp3aXAV (human CYP3A in Cyp3a−/−, FVB background)

AUC0-24 h (in vivo; [4]): 271 nM·h
AUC(0-t) (in vivo; [4]): 0.285 µM·h
AUC(0-t) (in vivo; FVB, Cyp3aXAV): 0.681 µM·h
AUC(0-t) (in vivo; FVB, wild-type): 0.707 µM·h
Cmax (in vivo; FVB, wild-type, Cmax): 119 nM
reduction of SIC recovered percentage of dose corrected for the plasma AUC ([1]; Oatp1a/1b/2b1−/− compared to wild-type mice): 2.9 fold
reduction of SIC recovered percentage of dose corrected for the plasma AUC ([1]; Oatp1a/1b−/− compared to wild-type mice): 4.0 fold
Cmax ([1]; OATP1B1-transgenic mice): 206 ± 105 nM
Tmax ([1]; OATP1B1-transgenic mice): 35 min
AUC(0-t) ([1]; OATP1B1-transgenic mice): 0.271 ± 0.144 µM·h
Cmax ([1]; OATP1B3-transgenic mice): 248 ± 145 nM
Tmax ([1]; OATP1B3-transgenic mice): 45 min
AUC(0-t) ([1]; OATP1B3-transgenic mice): 0.305 ± 0.177 µM·h
Cmax ([1]; Oatp1a/1b/2b1−/− mice): 202 ± 65 nM
Tmax ([1]; Oatp1a/1b/2b1−/− mice): 35 min
AUC(0-t) ([1]; Oatp1a/1b/2b1−/− mice): 0.252 ± 0.069 µM·h
Cmax ([1]; Oatp1a/1b−/− mice): 191 ± 43 nM
Tmax ([1]; Oatp1a/1b−/− mice): 35 min
AUC(0-t) ([1]; Oatp1a/1b−/− mice): 0.216 ± 0.047 µM·h
Cmax ([1]; wild-type mice): 84 ± 30 nM
Tmax ([1]; wild-type mice): 25 min
AUC(0-t) ([1]; wild-type mice): 0.091 ± 0.043 µM·h
Compound: CC(=O)O[C@@]12CO[C@@H]1C[C@H](O)[C@@]1(C)C(=O)[C@H](O)C3=C(C)[C@@H](OC(=O)[C@H](O)[C@@H](NC(=O)OC(C)(C)C)c4ccccc4)C[C@@](O)([C@@H](OC(=O)c4ccccc4)[C@H]21)C3(C)C [docetaxel]
increase in plasma AUC [2]: 3 fold
reduction of plasma AUC [3]: 2 fold
